From US12484580B2, “Use of alkoxypyrazoles as nitrification inhibitors” (BASF SE, priority 2018, dated 2025) come the findings set out here.

A short description of data set [1]: volatility of prior-art nitrification inhibitor. Type of data set: physicochemical. The note with it: stated as disadvantageous for long-term applications.
The subject of data set [2] is nitrification (soil microbial biomass). Description: inhibition of nitrification in soil incubation test (ammonium and nitrate content after 0 and 14 days). The note with it: compound at 1% of nitrogen N, 100 g soil, 10 mg ammoniumsulfate-N, 20° C., best obtained NI value. As to the method: The compounds of the invention have been tested as follows in terms of the inhibition of nitrification: 100 g soil is filled into 500 ml plastic bottles (e.g. soil sampled from the field) and is moistened to 50% water holding capacity. The soil is incubated at 20° C. for two weeks to activate the microbial biomass. 1 ml test solution, containing the compound in the appropriate concentration (usually 0.3 or 1% of nitrogen N), or DMSO and 10 mg nitrogen in the form of ammoniumsulfate-N is added to the soil and everything mixed well. Bottles are capped but loosely to allow air exchange. The bottles are then incubated at 20° C. for 0 and 14 days. For analysis, 300 ml of a 1% K2SO4-solution is added to the bottle containing the soil and shaken for 2 hours in a horizontal shaker at 150 rpm. Then the whole solution is filtered through a filter (Macherey-Nagel Filter MN 807 ¼). Ammonium and nitrate content is then analyzed in the filtrate in an autoanalyzer at 550 nm (Merck, AA11). The inhibition (NI @ a specified concentration) is calculated as follows: [formula]

Consider `CCOc1cc(C)[nH]n1` [3-ethoxy-5-methylpyrazole], for which, in data set [1], the volatility entry was “high volatility”.
Consider `CCOc1[nH]nc(C)c1Cl` [compound 9], for which the “NI* @ 1%” value in data set [2] was 22.0.
